Measured values taken from ChEMBL document CHEMBL4049463, “Repurposing Suzuki Coupling Reagents as a Directed Fragment Library Targeting Serine Hydrolases and Related Enzymes” (J Med Chem, 2017).

Molecular target: Autotaxin (Mus musculus, UniProt Q9R1E6)
Test: Inhibition of mouse ATX using TG-mTMP as substrate after 2 hrs by fluorometric analysis

| IC50 | SMILES |
| --- | --- |
| 0.0126 µM | OB(O)c1cccc(CCN2CCN(c3nc(O)c(Cc4ccc(Cl)c(Cl)c4)s3)CC2)c1 |
| 0.631 µM | OB(O)c1ccccc1CCN1CCN(c2nc(O)c(Cc3ccc(Cl)c(Cl)c3)s2)CC1 |
| 0.02 µM | OB(O)c1ccc(CCCN2CCC(c3nc(O)c(Cc4ccc(Cl)c(Cl)c4)s3)CC2)cc1 |

Molecular target: Autotaxin (Mus musculus) (UniProt Q9R1E6)

| SMILES | IC50 |
| --- | --- |
| OB(O)c1ccccc1 [PHENYLBORONIC ACID] | 10 µM |
| COc1ccc(B(O)O)cc1 | 5.01 µM |
| O=C(O)c1ccc2cc[nH]c2c1 | 794 µM |
| N#CCc1cccc(B(O)O)c1 | 5.01 µM |
| OB(O)c1ccc(Cl)cc1 | 3.16 µM |
| COc1ccccc1B(O)O | 3.98 µM |
| COc1cc(COc2ccc(B(O)O)cc2Cl)cc(OC)c1 | 0.316 µM |
| OB(O)c1ccc2nonc2c1 | 10 µM |
| CS(=O)(=O)c1ccc(O)cc1 | 631 µM |
| OB(O)c1ccc2cc[nH]c2c1 | 2 µM |
| OCc1cccc(B(O)O)c1 | 12.6 µM |
| Nc1cccc(-c2nnc[nH]2)c1 | 251 µM |
| OB(O)c1ccccc1OCc1cccc(Cl)c1 | 1 µM |
| COc1cccc(B(O)O)c1 | 20 µM |
| N#Cc1cccc(B(O)O)c1 | 20 µM |

More lines, now with the values ahead:

| IC50 | SMILES |
| --- | --- |
| 5.01 µM | CS(=O)(=O)c1ccc(B(O)O)cc1 |
| 10 µM | OB(O)c1ccc(O)cc1 |
| 0.501 µM | COCCc1ccc(OCc2cccc(B(O)O)c2)cc1 |
| 501 µM | Oc1ccc(-n2ccnc2)cc1 |
| 5.01 µM | N#Cc1ccc(B(O)O)cc1 |
| 10 µM | OB(O)c1cccc(O)c1 |
| 1.58 µM | N#C/C=C/c1cccc(B(O)O)c1 |
| 1260 µM | NCc1cccc(O)c1 |
| 200 µM | Oc1ccc2nonc2c1 |
